Measurements published in patent US20220324835A1 (Nurix Therapeutics, Inc., priority 2018, published 2022).

Key:
[1] = tested on: T-cell; assay: IL-2 secretion from T-cells co-stimulated with anti-CD3 and anti-CD28 antibody (Biological Example 2); format: cell-based, human; details: Homo sapiens, T-cell, primary human total T-cells, baseline = anti-CD3/anti-CD28 stimulated cells without inhibitor, read-out: IL-2 secretion, Anti-CD3/Anti-CD28 stimulation, fold change over baseline; for fold induction at 0.3 µM: 0.3 μM compound; for fold induction at 1 µM: 1 μM compound; for fold induction at 4 µM: 4 μM compound
How it was run: (§1)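 No assay protocol given; T-cells stimulated with anti-CD3 alone or anti-CD3 plus anti-CD28, with or without Cbl-b inhibitor. Activation read as IL-2 secretion or CD25 surface staining, expressed as fold over baseline from uninhibited cells […].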

[2] = biological target: T1, Cbl-b (Homo sapiens, UniProt Q13191); assay: Cbl-b inhibition assay (Cbl-b activity assay, FRET, Biological Example 1; 100 mM NaCl, 60 nM Src kinase); format: biochemical; details: upper bound stated in text lists; read-out: IC50 values in the Cbl-b inhibition assay of Biological Example 1
How it was run: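 Binding-based Cbl-b activity assay. Src-phosphorylated, N-terminally biotin-Avi-tagged Cbl-b recruits labelled UbcH5B-Ub, and proximity to streptavidin-terbium yields FRET.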

[3] = biological target: Cbl-b (residues 36-427) (Homo sapiens, UniProt Q13191); assay: Cbl-b binding assay (SPR, Biacore T200); details: 20° C., 1:1 binding model
How it was run: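 Affinities derived from global 1:1 steady-state or kinetic fits of double-referenced, solvent-corrected SPR data, 20 °C, NeutrAvidin-capture chip. Compound series (top 100 or 50 μM, 8–10 points) injected 50 s, 90–180 s dissociation. Asterisked values used 50 mM instead of 100 mM NaCl and 30 nM Src kinase.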

[4] = tested on: T-cell; assay: CD25 cell surface staining on T-cells stimulated with anti-CD3 antibody alone (Biological Example 2); format: cell-based; details: primary human total T-cells, baseline = anti-CD3/anti-CD28 stimulated cells without inhibitor, read-out: CD25 staining, Anti-CD3 stimulation, fold change over baseline; for fold induction at 1 µM: 1 μM compound; for fold induction at 8 µM: 8 μM compound
[5] = tested on: T-cell; assay: IL-2 secretion from T-cells stimulated with anti-CD3 antibody alone (Biological Example 2); format: cell-based; details: primary human total T-cells, read-out: IL-2 secretion, Anti-CD3 stimulation, fold change over baseline; for fold induction at 1 µM: 1 μM compound; for fold induction at 8 µM: 8 μM compound
[6] = tested on: T-cell; assay: CD25 cell surface staining on T-cells co-stimulated with anti-CD3 and anti-CD28 antibody (Biological Example 2); format: cell-based, human; details: Homo sapiens, T-cell, primary human total T-cells, baseline = anti-CD3/anti-CD28 stimulated cells without inhibitor, read-out: CD25 staining, Anti-CD3/Anti-CD28 stimulation, fold change over baseline; for fold induction at 0.3 µM: 0.3 μM compound; for fold induction at 1 µM: 1 μM compound; for fold induction at 4 µM: 4 μM compound
How it was run: as §1

[7] = biological target: T1, Cbl-b; assay: Cbl-b activity assay (Cbl-b inhibition assay), TR-FRET of Cbl-b interaction with UbcH5B-Ub; format: biochemical; details: assay buffer with 100 mM NaCl, 60 nM Src kinase; read-out: Cbl-b activity IC50
How it was run: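 TR-FRET readout of Cbl-b binding to Bodipy-fluorescein N-terminally labeled Ub conjugated to UbcH5B C85K, measured with compound present. After compound incubation, 60 nM Src kinase with 1 mM ATP and 5 mM MgCl2 (final) was added for 1.5 h, then a further 1 h incubation; asterisked values used 50 mM NaCl buffer and 30 nM Src.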

Cbl-b (residues 36-427), sequence (Q13191 36-427): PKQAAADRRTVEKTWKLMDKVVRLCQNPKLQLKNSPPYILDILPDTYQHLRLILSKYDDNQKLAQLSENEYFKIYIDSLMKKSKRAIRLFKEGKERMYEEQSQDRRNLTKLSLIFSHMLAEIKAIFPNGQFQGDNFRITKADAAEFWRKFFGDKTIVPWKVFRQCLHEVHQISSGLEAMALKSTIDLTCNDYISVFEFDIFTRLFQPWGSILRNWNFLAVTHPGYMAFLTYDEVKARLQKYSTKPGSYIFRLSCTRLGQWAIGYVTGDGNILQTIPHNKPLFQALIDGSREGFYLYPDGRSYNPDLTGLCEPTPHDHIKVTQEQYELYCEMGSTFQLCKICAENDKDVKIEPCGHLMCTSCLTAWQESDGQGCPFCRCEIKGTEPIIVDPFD
T1 sequence (Q13191 36-427): as above

| Structure (SMILES) | fold induction at 0.3 µM [1] | fold induction at 1 µM [1] | fold induction at 4 µM [1] | IC50 [2] | Kd [3] | fold induction at 1 µM [4] | fold induction at 8 µM [4] | fold induction at 1 µM [5] | fold induction at 8 µM [5] | fold induction at 0.3 µM [6] | fold induction at 1 µM [6] | fold induction at 4 µM [6] | IC50 [7] |
| --- | --- | --- | --- | --- | --- | --- | --- | --- | --- | --- | --- | --- | --- |
| Cn1cnnc1CC(C)(C)c1cccc(NC(=O)c2cc(C(=O)N3CC[C@H](O)C3)cc(C(F)(F)F)n2)c1 [Compound 475, (S)-4-(3-hydroxypyrrolidine-1-carbonyl)-N-(3-(2-methyl-1-(4-methyl-4H-1,2,4-triazol-3-yl)propan-2-yl)phenyl)-6-(trifluoromethyl)picolinamide] | 1.01 to 2.5 | 2.51 to 5 | 5 to 7.5 | ≤ 100 nM | 100 to 300 nM | 0.801 to 1 | > 1 | 0.101 to 0.15 | > 0.201 | 1.01 to 1.3 | 1.01 to 1.3 | 1.01 to 1.3 | < 100 nM |
| Cn1cnnc1CC(C)(C)c1cccc(N2Cc3c(cc(C4CC4)cc3C(F)(F)F)C2=O)c1 [Compound 477, 6-cyclopropyl-2-(3-(2-methyl-1-(4-methyl-4H-1,2,4-triazol-3-yl)propan-2-yl)phenyl)-4-(trifluoromethyl)isoindolin-1-one] | 1.01 to 2.5 | 2.51 to 5 | 5 to 7.5 | ≤ 100 nM | < 100 nM | 0.801 to 1 | > 1 | 0.101 to 0.15 | > 0.201 | 1.01 to 1.3 | 1.01 to 1.3 | 1.31 to 1.5 | < 100 nM |
| Cn1cnnc1CC1(c2cccc(NC(=O)c3cc(Cn4ccnn4)nc(C4CC4)n3)c2)COC1 [Compound 506, 2-cyclopropyl-N-(3-{3-[(4-methyl-1,2,4-triazol-3-yl)methyl]oxetan-3-yl}phenyl)-6-(1,2,3-triazol-1-ylmethyl)pyrimidine-4-carboxamide] | 1.01 to 2.5 | 2.51 to 5 | – | ≤ 100 nM | < 100 nM | 0.801 to 1 | – | 0.101 to 0.15 | – | 1.01 to 1.3 | 1.31 to 1.5 | – | < 100 nM |
| Cn1cnnc1CC1(c2cccc(N3Cc4c(cc(CN5CC[C@H](F)C5)cc4C4CC4)C3=O)c2)COC1 [Example 554, (S)-4-cyclopropyl-6-((3-fluoropyrrolidin-1-yl)methyl)-2-(3-(3-((4-methyl-4H-1,2,4-triazol-3-yl)methyl)oxetan-3-yl)phenyl)isoindolin-1-one] | > 7.5 | > 7.5 | – | ≤ 100 nM | < 100 nM | > 1 | – | 0.151 to 0.2 | – | 1.31 to 1.5 | 1.31 to 1.5 | – | < 100 nM |
